Values quoted from earlier work as cited in PubChem BioAssay AID1259409 (Chemical Carcinogenesis Research Information System (CCRIS), 2018).

Test system: rodent chemically induced tumor inhibition, incidence and multiplicity
Assay: CCRIS tumor inhibitor studies

CC(C)[C@@H](C)/C=C/[C@@H](C)[C@H]1CC[C@H]2C3=CC=C4C[C@@H](O)CC[C@]4(C)[C@H]3CC[C@]12C
tumour outcome (control, treated, inhibition, significance) (Carcinogen: 7,12-DIMETHYLBENZ[A]ANTHRACENE, 57-97-6, Dose [Inhibitor]: 0, 2 UMOL IN 100 µL ACETONE:DIMETHYLSULFOXIDE (9:1) 2/WK FOR 18 WK APPLIED 30 MIN PRIOR TO EACH PROMOTER DOSE (STUDY DUR, Route [Inhibitor]: DERMAL, Species: MOUSE, Strain/Sex: ICR/FEMALE, Target Tissue: Type of Lesion: SKIN: PAPILLOMA, Dose [Carcinogen]: 50 UG IN 100 µL ACETONE ONCE, Promoter: 12-O-TETRADECANOYLPHORBOL-13-ACETATE, 16561-29-8): 100%, 40%, 60%, not calculated

CC[C@@H](C)[C@H](NC(=O)CN)C(=O)N[C@H](C(=O)N[C@@H](CCC(=O)O)C(=O)N[C@@H](CCC(N)=O)C(=O)N[C@H]1CSSC[C@H]2NC(=O)[C@H]([C@H](C)CC)NC(=O)[C@H](CO)NC(=O)[C@H]([C@H](C)O)NC(=O)[C@H](CSSC[C@H](NC(=O)[C@H](CC(C)C)NC(=O)[C@H](Cc3c[nH]cn3)NC(=O)[C@H](CCC(N)=O)NC(=O)[C@@H](NC(=O)[C@@H](NC(=O)[C@@H](N)Cc3ccccc3)C(C)C)C(N)=O)C(=O)NCC(=O)N[C@@H](CO)C(=O)N[C@@H](Cc3c[nH]cn3)C(=O)N[C@@H](CC(C)C)C(=O)N[C@@H](C(C)C)C(=O)N[C@@H](CCC(=O)O)C(=O)N[C@@H](C)C(=O)N[C@@H](CC(C)C)C(=O)N[C@@H](Cc3ccc(O)cc3)C(=O)N[C@@H](CC(C)C)C(=O)N[C@@H](C(C)C)C(=O)N[C@H](C(=O)NCC(=O)N[C@@H](CCC(=O)O)C(=O)N[C@@H](CCCNC(=N)N)C(=O)NCC(=O)N[C@@H](Cc3ccccc3)C(=O)N[C@@H](Cc3ccccc3)C(=O)N[C@@H](Cc3ccc(O)cc3)C(=O)N[C@H](C(=O)N3CCC[C@H]3C(=O)N[C@@H](CCCCN)C(=O)N[C@H](C(=O)O)[C@H](C)O)[C@H](C)O)CSSC[C@@H](C(=O)N[C@@H](CC(N)=O)C(=O)O)NC(=O)[C@H](Cc3ccc(O)cc3)NC(=O)[C@H](CC(N)=O)NC(=O)[C@H](CCC(=O)O)NC(=O)[C@H](CC(C)C)NC(=O)[C@H](CCC(N)=O)NC(=O)[C@H](Cc3ccc(O)cc3)NC(=O)[C@H](CC(C)C)NC(=O)[C@H](CO)NC2=O)NC1=O)C(C)C
tumour outcome (control, treated, inhibition, significance) (Carcinogen: 7,12-DIMETHYLBENZ[A]ANTHRACENE, 57-97-6, Dose [Inhibitor]: 0, 10 I.U. FOR 7 D BEGINNING 3 D PRIOR TO CARCINOGEN DOSE (STUDY DURATION: 6 MO), Route [Inhibitor]: SUBCUTANEOUS, Species: RAT, Strain/Sex: SWISS/FEMALE, Target Tissue: Type of Lesion: MAMMARY GLAND: TUMOR, Dose [Carcinogen]: 20 MG IN 4 ML OLIVE OIL ONCE, Promoter: NONE USED): 22/33 (67%), 6/32 (19%), 72%, not calculated

CS(=O)CCCCN=C=S (configuration not stated)
tumour outcome (control, treated, inhibition, significance) (Carcinogen: 4-(METHYLNITROSAMINO)-1-(3-PYRIDYL)-1-BUTANONE (NNK) [64091-91-4], Dose [Inhibitor]: 1.5 UM/G DIET, BEGINNING 13 WKS AFTER CARCINOGEN/PROMOTER TREATMENT (STUDY DURATION: 42 WK), Route [Inhibitor]: DIET, Species: MOUSE, Strain/Sex: A/J/FEMALE (39,?)/(20,?), Target Tissue: Type of Lesion: LUNG: ADENOCARCINOMA, Dose [Carcinogen]: 3 µM WEEKLY FOR 8 DOSES, Promoter: BENZO[A]PYRENE [50-32-8]): 42%, 20%, 52%, not significant
tumour outcome (control, treated, inhibition, significance) (Carcinogen: 4-(METHYLNITROSAMINO)-1-(3-PYRIDYL)-1-BUTANONE (NNK) [64091-91-4], Dose [Inhibitor]: 1.5 UM/G DIET, BEGINNING 13 WKS AFTER CARCINOGEN/PROMOTER TREATMENT (STUDY DURATION: 42 WK), Route [Inhibitor]: DIET, Species: MOUSE, Strain/Sex: A/J/FEMALE (39,?)/(20,?), Target Tissue: Type of Lesion: LUNG: ADENOMA, Dose [Carcinogen]: 3 µM WEEKLY FOR 8 DOSES, Promoter: BENZO[A]PYRENE [50-32-8]): 100%, 100%, 0%, not significant
tumour outcome (control, treated, inhibition, significance) (Carcinogen: 4-(METHYLNITROSAMINO)-1-(3-PYRIDYL)-1-BUTANONE (NNK) [64091-91-4], Dose [Inhibitor]: 3 UM/G DIET, BEGINNING 13 WKS AFTER CARCINOGEN/PROMOTER TREATMENT (STUDY DURATION: 42 WK), Route [Inhibitor]: DIET, Species: MOUSE, Strain/Sex: A/J/FEMALE (39,?)(32,?), Target Tissue: Type of Lesion: LUNG: ADENOCARCINOMA, Dose [Carcinogen]: 3 µM WEEKLY FOR 8 DOSES, Promoter: BENZO[A]PYRENE [50-32-8]): 42%, 28%, 33%, not significant
tumour outcome (control, treated, inhibition, significance) (Carcinogen: 4-(METHYLNITROSAMINO)-1-(3-PYRIDYL)-1-BUTANONE (NNK) [64091-91-4], Dose [Inhibitor]: 3 UM/G DIET, BEGINNING 13 WKS AFTER CARCINOGEN/PROMOTER TREATMENT (STUDY DURATION: 42 WK), Route [Inhibitor]: DIET, Species: MOUSE, Strain/Sex: A/J/FEMALE (39,?)/(32,?), Target Tissue: Type of Lesion: LUNG: ADENOMA, Dose [Carcinogen]: 3 µM WEEKLY FOR 8 DOSES, Promoter: BENZO[A]PYRENE [50-32-8]): 100%, 93%, 7%, not significant
tumour outcome (control, treated, inhibition, significance) (Carcinogen: 7,12-DIMETHYLBENZ[A]ANTHRACENE, 57-97-6, Dose [Inhibitor]: 0, 75 UMOL/D IN 0.5 ML EMULPHOR EL-620 FOR 5 CONSECUTIVE DAYS BEGINNING AT 47 D OF AGE (STUDY DURATION: 155 D), Route [Inhibitor]: GAVAGE, Species: RAT, Strain/Sex: SPRAGUE-DAWLEY/FEMALE, Target Tissue: Type of Lesion: MAMMARY GLAND: TUMOR, Dose [Carcinogen]: 8 MG IN 1 ML SESAME OIL ONCE AT 50 D OF AGE, Promoter: NONE USED): 17/25 (68%), 7/20 (35%), 49%, p<0.05
tumour outcome (control, treated, inhibition, significance) (Carcinogen: 7,12-DIMETHYLBENZ[A]ANTHRACENE, 57-97-6, Dose [Inhibitor]: 0, 150 UMOL/D IN 0.5 ML EMULPHOR EL-620 FOR 5 CONSECUTIVE DAYS BEGINNING AT 47 D OF AGE (STUDY DURATION: 155 D), Route [Inhibitor]: GAVAGE, Species: RAT, Strain/Sex: SPRAGUE-DAWLEY/FEMALE, Target Tissue: Type of Lesion: MAMMARY GLAND: TUMOR, Dose [Carcinogen]: 8 MG IN 1 ML SESAME OIL ONCE AT 50 D OF AGE, Promoter: NONE USED): 17/25 (68%), 5/19 (26%), 62%, p<0.05

CCOC(=O)/C=C(C)/C=C/C=C(C)/C=C/c1c(C)cc(O)c(C)c1C
tumour outcome (control, treated, inhibition, significance) (Carcinogen: 7,12-DIMETHYLBENZ[A]ANTHRACENE, 57-97-6, Dose [Inhibitor]: 140 NMOL IN 0.2 ML ACETONE 2/WK (D 1 AND D 4 OF EACH WK) 1 HR BEFORE EACH PROMOTER APPLICATION STARTING 14 D AFTER CARCI, Route [Inhibitor]: DERMAL, Species: MOUSE, Strain/Sex: CD-1/FEMALE, Target Tissue: Type of Lesion: SKIN: PAPILLOMA, Dose [Carcinogen]: 0.2 UMOL IN 0.2 ML ACETONE ONCE, Promoter: 12-O-TETRADECANOYLPHORBOL-13-ACETATE, 16561-29-8): 90%, 95%, -6%, not significant

C=C1CC[C@H]2[C@@]3(C)CCC[C@]2(C)[C@H]1CO[C@@H](C(=O)OC)[C@H](CC(=O)O)C(=O)OC[C@]1(C)CCC[C@]2(C)[C@@H](CO[C@@H](C(=O)OC)[C@H](CC(=O)O)C(=O)OC3)C(=C)CC[C@@H]12
tumour outcome (control, treated, inhibition, significance) (Carcinogen: 7,12-DIMETHYLBENZ[A]ANTHRACENE, 57-97-6, Dose [Inhibitor]: 0, 1 MG 2/WK FOR 20 WK APPLIED 10 MIN PRIOR TO EACH PROMOTER DOSE (STUDY DURATION: 20 WK), Route [Inhibitor]: DERMAL, Species: MOUSE, Strain/Sex: CD-1/FEMALE, Target Tissue: Type of Lesion: SKIN: TUMOR, Dose [Carcinogen]: 100 UG ONCE, Promoter: OKADAIC ACID, 78111-17-8): 73%, 80%, -10%, not significant
tumour outcome (control, treated, inhibition, significance) (Carcinogen: 7,12-DIMETHYLBENZ[A]ANTHRACENE, 57-97-6, Dose [Inhibitor]: 0, 5 MG 2/WK FOR 20 WK APPLIED 10 MIN PRIOR TO EACH PROMOTER DOSE (STUDY DURATION: 20 WK), Route [Inhibitor]: DERMAL, Species: MOUSE, Strain/Sex: CD-1/FEMALE, Target Tissue: Type of Lesion: SKIN: TUMOR, Dose [Carcinogen]: 100 UG ONCE, Promoter: OKADAIC ACID, 78111-17-8): 73%, 93%, -27%, not significant

C=C(C)C1CC=C(C)C(O)C1 (configuration not stated)
tumour outcome (control, treated, inhibition, significance) (Carcinogen: 7,12-DIMETHYLBENZ[A]ANTHRACENE, 57-97-6, Dose [Inhibitor]: 0, 1% IN DIET FOR 3 WK BEGINNING 2 WK PRIOR TO CARCINOGEN DOSE (STUDY DURATION: 20 WK), Route [Inhibitor]: ORAL, Species: RAT, Strain/Sex: WISTAR/FEMALE, Target Tissue: Type of Lesion: MAMMARY GLAND: CARCINOMA, Dose [Carcinogen]: 50 MG/KG IN SESAME OIL ONCE, Promoter: NONE USED): 98%, 92%, 6%, not significant
